Test results: PubChem BioAssay (NCI)
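These data come from cells grown in 96-well plates and exposed to compound for 48 hours at five concentrations. Definition used: TGI = concentration required for complete inhibition of growth.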

Legend:
Experiment in all cases: DTP human tumour cell line panel, 48 h
786-0 renal = test system: 786-0 renal
A498 renal = test system: A498 renal
A549 NSCLC = test system: A549 NSCLC
ACHN renal = test system: ACHN renal
CAKI-1 renal = test system: CAKI-1 renal
CCRF-CEM leukemia = test system: CCRF-CEM leukemia
COLO 205 colon = test system: COLO 205 colon
DLD-1 colon = test system: DLD-1 colon
DMS 114 small cell lung = test system: DMS 114 small cell lung
EKVX NSCLC = test system: EKVX NSCLC
HCC-2998 colon = test system: HCC-2998 colon
HCT-116 colon = test system: HCT-116 colon
HCT-15 colon = test system: HCT-15 colon
HL-60(TB) leukemia = test system: HL-60(TB) leukemia
HOP-18 NSCLC = test system: HOP-18 NSCLC
HOP-62 NSCLC = test system: HOP-62 NSCLC
HOP-92 NSCLC = test system: HOP-92 NSCLC
HT29 colon = test system: HT29 colon
IGROV1 ovarian = test system: IGROV1 ovarian
K-562 leukemia = test system: K-562 leukemia
KM12 colon = test system: KM12 colon
KM20L2 colon = test system: KM20L2 colon
LOX IMVI melanoma = test system: LOX IMVI melanoma
LXFL 529 NSCLC = test system: LXFL 529 NSCLC
M14 melanoma = test system: M14 melanoma
M19-MEL melanoma = test system: M19-MEL melanoma
MALME-3M melanoma = test system: MALME-3M melanoma
MOLT-4 leukemia = test system: MOLT-4 leukemia
NCI-H226 lung = test system: NCI-H226 lung
NCI-H23 lung = test system: NCI-H23 lung
NCI-H460 lung = test system: NCI-H460 lung
NCI-H522 lung = test system: NCI-H522 lung
OVCAR-3 ovarian = test system: OVCAR-3 ovarian
OVCAR-4 ovarian = test system: OVCAR-4 ovarian
OVCAR-5 ovarian = test system: OVCAR-5 ovarian
OVCAR-8 ovarian = test system: OVCAR-8 ovarian
RPMI-8226 leukemia = test system: RPMI-8226 leukemia
RXF 393 renal = test system: RXF 393 renal
RXF-631 renal = test system: RXF-631 renal
SF-268 CNS = test system: SF-268 CNS
SF-295 CNS = test system: SF-295 CNS
SF-539 CNS = test system: SF-539 CNS
SK-MEL-2 melanoma = test system: SK-MEL-2 melanoma
SK-MEL-28 melanoma = test system: SK-MEL-28 melanoma
SK-MEL-5 melanoma = test system: SK-MEL-5 melanoma
SK-OV-3 ovarian = test system: SK-OV-3 ovarian
SN12C renal = test system: SN12C renal
SNB-19 CNS = test system: SNB-19 CNS
SNB-75 CNS = test system: SNB-75 CNS
SNB-78 CNS = test system: SNB-78 CNS
SR leukemia = test system: SR leukemia
TK-10 renal = test system: TK-10 renal
U251 CNS = test system: U251 CNS
UACC-257 melanoma = test system: UACC-257 melanoma
UACC-62 melanoma = test system: UACC-62 melanoma
UO-31 renal = test system: UO-31 renal
XF 498 CNS = test system: XF 498 CNS

For `CC(C)=CC1CC(=O)C1(C)Sc1ccccc1` (configuration not stated), which TGI (786-0 renal) is on record?
Its TGI is > 100 µM.

What about the TGI (A498 renal) of the same compound?
The TGI was > 100 µM.

And the TGI (A549 NSCLC)?
Its TGI is > 100 µM.

And the TGI (ACHN renal)?
The TGI was > 100 µM.

What about the TGI (CAKI-1 renal) of the same compound?
Its TGI is > 100 µM.

What about the TGI (CCRF-CEM leukemia) of the same compound?
The TGI was 45 µM.

And the TGI (COLO 205 colon)?
The TGI was 65.1 µM.

And the TGI (DLD-1 colon)?
Its TGI is > 100 µM.

What about the TGI (DMS 114 small cell lung) of the same compound?
The TGI was 32.6 µM.

And the TGI (EKVX NSCLC)?
Its TGI is > 100 µM.

What about the TGI (HCC-2998 colon) of the same compound?
The TGI was > 100 µM.

What about the TGI (HCT-116 colon) of the same compound?
Its TGI is > 100 µM.

What about the TGI (HCT-15 colon) of the same compound?
The TGI was 34.8 µM.

And the TGI (HL-60(TB) leukemia)?
Its TGI is 46.7 µM.

What about the TGI (HOP-18 NSCLC) of the same compound?
The TGI was > 100 µM.

And the TGI (HOP-62 NSCLC)?
Its TGI is > 100 µM.

What about the TGI (HOP-92 NSCLC) of the same compound?
The TGI was 87 µM.

And the TGI (HT29 colon)?
The TGI was 66.6 µM.

What about the TGI (IGROV1 ovarian) of the same compound?
The TGI was > 100 µM.

And the TGI (K-562 leukemia)?
The TGI was 59.4 µM.

And the TGI (KM12 colon)?
The TGI was > 100 µM.

And the TGI (KM20L2 colon)?
The TGI was > 100 µM.

And the TGI (LOX IMVI melanoma)?
Its TGI is 36.1 µM.

What about the TGI (LXFL 529 NSCLC) of the same compound?
The TGI was > 100 µM.

And the TGI (M14 melanoma)?
The TGI was > 100 µM.

What about the TGI (M19-MEL melanoma) of the same compound?
Its TGI is 72.1 µM.

What about the TGI (MALME-3M melanoma) of the same compound?
Its TGI is > 100 µM.

And the TGI (MOLT-4 leukemia)?
Its TGI is 92.1 µM.

And the TGI (NCI-H226 lung)?
Its TGI is > 100 µM.

And the TGI (NCI-H23 lung)?
Its TGI is > 100 µM.

And the TGI (NCI-H460 lung)?
Its TGI is 54.4 µM.

What about the TGI (NCI-H522 lung) of the same compound?
The TGI was 69.1 µM.

What about the TGI (OVCAR-3 ovarian) of the same compound?
The TGI was > 100 µM.

And the TGI (OVCAR-4 ovarian)?
The TGI was > 100 µM.

What about the TGI (OVCAR-5 ovarian) of the same compound?
The TGI was > 100 µM.

What about the TGI (OVCAR-8 ovarian) of the same compound?
Its TGI is > 100 µM.

And the TGI (RPMI-8226 leukemia)?
The TGI was 45.9 µM.

And the TGI (RXF 393 renal)?
Its TGI is 72 µM.

What about the TGI (RXF-631 renal) of the same compound?
Its TGI is > 100 µM.

And the TGI (SF-268 CNS)?
Its TGI is > 100 µM.

What about the TGI (SF-295 CNS) of the same compound?
The TGI was > 100 µM.

What about the TGI (SF-539 CNS) of the same compound?
The TGI was > 100 µM.

What about the TGI (SK-MEL-2 melanoma) of the same compound?
The TGI was > 100 µM.

And the TGI (SK-MEL-28 melanoma)?
The TGI was > 100 µM.

And the TGI (SK-MEL-5 melanoma)?
The TGI was > 100 µM.

And the TGI (SK-OV-3 ovarian)?
The TGI was > 100 µM.

What about the TGI (SN12C renal) of the same compound?
The TGI was > 100 µM.

And the TGI (SNB-19 CNS)?
Its TGI is > 100 µM.

And the TGI (SNB-75 CNS)?
The TGI was > 100 µM.

And the TGI (SNB-78 CNS)?
The TGI was > 100 µM.

What about the TGI (SR leukemia) of the same compound?
Its TGI is 41.4 µM.

What about the TGI (TK-10 renal) of the same compound?
Its TGI is > 100 µM.

And the TGI (U251 CNS)?
Its TGI is > 100 µM.

And the TGI (UACC-257 melanoma)?
Its TGI is > 100 µM.

What about the TGI (UACC-62 melanoma) of the same compound?
Its TGI is > 100 µM.

And the TGI (UO-31 renal)?
Its TGI is > 100 µM.

And the TGI (XF 498 CNS)?
The TGI was 95.7 µM.
